Reference: patent US10035800B2 (AbbVie Inc., priority 2013, dated 2018)

Assays:
BRD4 (BDI_K57-E168) = biological target: T1, BRD4 (BDI_K57-E168) (Homo sapiens, UniProt O60885); experiment: TR-FRET bromodomain binding assay, first bromodomain of BRD4; conditions: 100 nM probe
T1 construct: BD1: amino acids K57-E168; made in house
Outline: (§1)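 His-tagged BRD4 bromodomain (8 nM) was incubated with Eu-anti-His antibody (1 nM) and an Alexa647-labelled BET-inhibitor probe (100 nM for BDI, 30 nM for BDII) in pH 6.0 phosphate buffer with 2% DMSO for 1 h at room temperature. TR-FRET ratio was read, IC50 fitted by 4-parameter logistic, then converted to Ki.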

BRD4 (BDII_E352-M457) = biological target: T2, BRD4 (BDII_E352-M457) (Homo sapiens, UniProt O60885); experiment: TR-FRET bromodomain binding assay, second bromodomain of BRD4; conditions: 30 nM probe
T2 construct: protocol; made in house
Outline: as §1

[1] = system: breast cancer cell line MX-1; experiment: MX-1 cell line proliferation assay; assay type: cell-based; conditions: MX-1 cells, 3-day proliferation assay, Cell Titer Glo; read-out: Cellular proliferation: EC50
Experimental: MX-1 Cell Line Proliferation Assay
The impact of compounds of the Examples on cancer cell proliferation was determined using the breast cancer cell line MX-1 (ATCC) in a 3-day proliferation assay and the data are reported in Table 1. MX-1 cells were maintained in RPMI 1640 medium (Sigma) supplemented with 10% FBS at 37 C.° and an atmosphere of 5% CO2. For compound testing, MX-1 cells were plated in 96-well black bottom plates at a density of 5000 cells/well in 90 μL of culture media and incubated at 37° overnight to allow cell adhesion and spreading. Compound dilution series were prepared in DMSO via a 3-fold serial dilution from 3 mM to 0.1 μM. The DMSO dilution series were then diluted 1:100 in phosphate buffered saline, and 10 μL of the resulted solution were added to the appropriate wells of the MX-1 cell plate. The final compound concentrations in the wells were 3, 1, 0.3, 0.1, 0.03, 0.01, 0.003, 0.001, 0.0003, and 0.0001 μM or 1, 0.3, 0.1, 0.03, 0.01, 0.003, 0.001, 0.0003, 0.0001, and 0.00003 μM.
Luminescence readings from the Cell Titer Glo assay were normalized to the DMSO treated cells and analyzed using the GraphPad Prism software with sigmoidal curve fitting to obtain EC50s. The minimum significant ratio (MSR) was determined to evaluate assay reproducibility (Eastwood et al., (2006) J Biomol Screen, 11: 253-261). The overall MSR was determined to be 2.1 and a moving MSR (last six run MSR overtime) has been <2.

[2] = TR-FRET assay protocol G (compound 0.92 μM-15 pM)
[3] = TR-FRET assay protocol E (compound 9.19 μM-150 pM)

Ki (BRD4 (BDI_K57-E168); [2])	Ki (BRD4 (BDII_E352-M457); [2])	EC50 [1]	Ki (BRD4 (BDI_K57-E168); [3])	Ki (BRD4 (BDII_E352-M457); [3])	Compound
6.1 nM	19.1 nM	17.7 nM	–	–	Cn1cc2c3c(c[nH]c3c1=O)CN(Cc1ccccn1)c1ccc(CS(C)(=O)=O)cc1-2 [Example 249, 10-methyl-7-((methylsulfonyl)methyl)-4-(pyridin-2-ylmethyl)-3,4-dihydro-1H-1,4,10-triazadibenzo[cd,f]azulen-11(10H)-one]
14.4 nM	35.3 nM	197 nM	–	–	Cn1cc2c3c(c[nH]c3c1=O)CN(CCc1ccc3c(c1)OCO3)c1c(F)cc(F)cc1-2 [Example 56, 4-(2-(benzo[d][1,3]dioxol-5-yl)ethyl)-5,7-difluoro-10-methyl-3,4-dihydro-1H-1,4,10-triazadibenzo[cd,f]azulen-11(10H)-one]
35.5 nM	95.1 nM	331 nM	–	–	tert-butyl 4-(4-(4-fluorophenyl)-10-methyl-7-((methylsulfonyl)methyl)-11-oxo-3,4,10,11-tetrahydro-1H-1,4,10-triazadibenzo[cd,f]azulene-3-carbonyl)piperazine-1-carboxylate [Example 35]
6.77 nM	0.54 nM	31.9 nM	–	–	CCOCCCC1c2c[nH]c3c(=O)n(C)cc(c23)-c2cc(CS(C)(=O)=O)ccc2N1c1ccc(F)cc1F (stereo not drawn) [Example 148, 4-(2,4-difluorophenyl)-3-(3-ethoxypropyl)-10-methyl-7-((methylsulfonyl)methyl)-3,4-dihydro-1H-1,4,10-triazadibenzo[cd,f]azulen-11(10H)-one]
4.53 nM	7.33 nM	34.3 nM	–	–	Cn1ccc(CN2Cc3c[nH]c4c(=O)n(C)cc(c34)-c3cc(CS(C)(=O)=O)ccc32)n1 [Example 255, 10-methyl-4-((1-methyl-1H-pyrazol-3-yl)methyl)-7-((methylsulfonyl)methyl)-3,4-dihydro-1H-1,4,10-triazadibenzo[cd,f]azulen-11(10H)-one]
9.99 nM	2.24 nM	936 nM	–	–	Cn1cc2c3c(c[nH]c3c1=O)C(CCC(O)CO)N(c1ccc(F)cc1F)c1ccc(CS(C)(=O)=O)cc1-2 (stereo not drawn) [Example 140, 4-(2,4-difluorophenyl)-3-(3,4-dihydroxybutyl)-10-methyl-7-((methylsulfonyl)methyl)-3,4-dihydro-1H-1,4,10-triazadibenzo[cd,f]azulen-11(10H)-one]
–	–	19.2 nM	24.6 nM	8.36 nM	CCS(=O)(=O)c1ccc2c(c1)-c1cn(C)c(=O)c3[nH]cc(c13)CN2CC1CC1 [Example 2, 4-(cyclopropylmethyl)-7-(ethylsulfonyl)-10-methyl-3,4-dihydro-1H-1,4,10-triazadibenzo[cd,f]azulen-11(10H)-one]
0.92 nM	2.39 nM	4.43 nM	–	–	Cn1cc2c3c(c[nH]c3c1=O)CN(c1ncc(F)cn1)c1ccc(CS(C)(=O)=O)cc1-2 [Example 258, 4-(5-fluoropyrimidin-2-yl)-10-methyl-7-((methylsulfonyl)methyl)-3,4-dihydro-1H-1,4,10-triazadibenzo[cd,f]azulen-11(10H)-one]
54.9 nM	3.06 nM	175 nM	–	–	Cn1cc2c3c(c[nH]c3c1=O)C(CCCOc1ccccc1)N(c1ccc(F)cc1F)c1ccc(CS(C)(=O)=O)cc1-2 (stereo not drawn) [Example 143, 4-(2,4-difluorophenyl)-10-methyl-7-((methylsulfonyl)methyl)-3-(3-phenoxypropyl)-3,4-dihydro-1H-1,4,10-triazadibenzo[cd,f]azulen-11(10H)-one]
15 nM	1.9 nM	99.9 nM	–	–	CN(C)CCCC1c2c[nH]c3c(=O)n(C)cc(c23)-c2cc(CS(C)(=O)=O)ccc2N1c1ccc(F)cc1F (racemic) [Example 175, 4-(2,4-difluorophenyl)-3-(3-(dimethylamino)propyl)-10-methyl-7-((methylsulfonyl)methyl)-3,4-dihydro-1H-1,4,10-triazadibenzo[cd,f]azulen-11(10H)-one]
4.11 nM	1.96 nM	41.2 nM	–	–	Cn1cc2c3c(c[nH]c3c1=O)C(CCNC(=O)OCc1ccccc1)N(c1ccc(F)cc1F)c1ccc(CS(C)(=O)=O)cc1-2 (racemic) [Example 229, benzyl (2-(4-(2,4-difluorophenyl)-10-methyl-7-((methylsulfonyl)methyl)-11-oxo-3,4,10,11-tetrahydro-1H-1,4,10-triazadibenzo[cd,f]azulen-3-yl)ethyl)carbamate]
3.84 nM	1.86 nM	7.82 nM	–	–	COC(=O)NC1CCC(N2Cc3c[nH]c4c(=O)n(C)cc(c34)-c3cc(CS(C)(=O)=O)ccc32)CC1 (stereo not drawn) [Example 226, methyl ((cis)-4-(10-methyl-7-((methylsulfonyl)methyl)-11-oxo-10,11-dihydro-1H-1,4,10-triazadibenzo[cd,f]azulen-4(3H)-yl)cyclohexyl)carbamate]
8.96 nM	15.9 nM	146 nM	–	–	Cn1cc2c3c(c[nH]c3c1=O)CN(CCc1ccccc1)c1c(F)cc(F)cc1-2 [Example 55, 5,7-difluoro-10-methyl-4-phenethyl-3,4-dihydro-1H-1,4,10-triazadibenzo[cd,f]azulen-11(10H)-one]
12.7 nM	4.22 nM	40.1 nM	–	–	Cn1cc2c3c(c[nH]c3c1=O)CN(C(=O)Nc1ccc(F)cc1F)c1ccc(CS(C)(=O)=O)cc1-2 [Example 68, N-(2,4-difluorophenyl)-10-methyl-7-((methylsulfonyl)methyl)-11-oxo-10,11-dihydro-1H-1,4,10-triazadibenzo[cd,f]azulene-4(3H)-carboxamide]
2.45 nM	3.89 nM	14.7 nM	–	–	CCOC(=O)C1c2c[nH]c3c(=O)n(C)cc(c23)-c2cc(CS(C)(=O)=O)ccc2N1c1ccc(F)cc1 (racemic) [Example 34, ethyl 4-(4-fluorophenyl)-10-methyl-7-((methylsulfonyl)methyl)-11-oxo-3,4,10,11-tetrahydro-1H-1,4,10-triazadibenzo[cd,f]azulene-3-carboxylate]
13.3 nM	1.12 nM	979 nM	–	–	COC(=O)CCC1c2c[nH]c3c(=O)n(C)cc(c23)-c2cc(CS(C)(=O)=O)ccc2N1c1ccc(F)cc1F (stereo not drawn) [Example 82, methyl 3-(4-(2,4-difluorophenyl)-10-methyl-7-((methylsulfonyl)methyl)-11-oxo-3,4,10,11-tetrahydro-1H-1,4,10-triazadibenzo[cd,f]azulen-3-yl)propanoate]
11.9 nM	0.602 nM	134 nM	–	–	CN(C)C(=O)CCC1c2c[nH]c3c(=O)n(C)cc(c23)-c2cc(CS(C)(=O)=O)ccc2N1c1ccc(F)cc1F (stereo not drawn) [Example 119, 3-(4-(2,4-difluorophenyl)-10-methyl-7-((methylsulfonyl)methyl)-11-oxo-3,4,10,11-tetrahydro-1H-1,4,10-triazadibenzo[cd,f]azulen-3-yl)-N,N-dimethylpropanamide]
39.9 nM	4.76 nM	301 nM	–	–	Cn1cc2c3c(c[nH]c3c1=O)C(CC(C)(C)C)N(c1ccc(F)cc1F)c1ccc(CS(C)(=O)=O)cc1-2 (stereo not drawn) [Example 219, 4-(2,4-difluorophenyl)-10-methyl-7-((methylsulfonyl)methyl)-3-neopentyl-3,4-dihydro-1H-1,4,10-triazadibenzo[cd,f]azulen-11(10H)-one]
2.24 nM	3.86 nM	17.7 nM	–	–	CCOC(=O)C1c2c[nH]c3c(=O)n(C)cc(c23)-c2cc(CS(C)(=O)=O)ccc2N1c1ccc(F)cc1 [Example 84, (R)-ethyl 4-(4-fluorophenyl)-10-methyl-7-((methylsulfonyl)methyl)-11-oxo-3,4,10,11-tetrahydro-1H-1,4,10-triazadibenzo[cd,f]azulene-3-carboxylate]

Compound	Ki (BRD4 (BDI_K57-E168); [2])	Ki (BRD4 (BDII_E352-M457); [2])	EC50 [1]	Ki (BRD4 (BDI_K57-E168); [3])	Ki (BRD4 (BDII_E352-M457); [3])
Cn1cc2c3c(c[nH]c3c1=O)C(c1ccccc1-c1ccccc1)N(c1ccc(F)cc1F)c1ccc(CS(C)(=O)=O)cc1-2 (stereo not drawn) [Example 230]	> 238 nM	58.1 nM	528 nM	–	–
Cn1cc2c3c(c[nH]c3c1=O)CN(CC1CCNC1)c1ccc(CS(C)(=O)=O)cc1-2 (stereo not drawn) [Example 36]	5.05 nM	6.25 nM	> 1000 nM	–	–
4-([1,1′-biphenyl]-4-carbonyl)-10-methyl-7-((methylsulfonyl)methyl)-3,4-dihydro-1H-1,4,10-triazadibenzo[cd,f]azulen-11(10H)-one [Example 102]	9.41 nM	26.9 nM	151 nM	–	–
